Test systems include A549; CAKI-1; COLO 205; HCC 2998; HOP-62; HT-29; K562; M14; MDA-MB-435; RPMI-8226; RXF 393; SF-295; SK-MEL-28; SK-MEL-2; SN12C; TK-10; HCT-15; Malme-3M.
Assay in all cases: DTP human tumour cell line panel, 48 h

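In this assay, cells in 96-well plates receive the compound at five concentrations for 48 hours. Endpoints are linearly interpolated between the surrounding concentrations. Abbreviation: GI50, concentration required for 50% inhibition of growth.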 Activity calls are given as the source filed them. Rule as the data show it: active = GI50 up to about 1.1 µM and inactive = higher. Where only a bound is given, the exact number is not on record here.

As usually defined, the GI50 is the concentration that inhibits growth by half. In the case of `NC(=O)C(=CNC(=S)Nc1cccc(C(F)(F)F)c1)C(N)=O`, the GI50 was > 100 µM (inactive) in the test with A549; 28.4 µM (inactive) in the test with CAKI-1; > 100 µM (inactive) with COLO 205; > 100 µM (inactive) in the test with HCC 2998; > 100 µM (inactive) with HOP-62; > 100 µM (inactive) with HT-29. Further, the GI50 with K562, in the test on M14, in the test with MDA-MB-435, in the test with RPMI-8226, in the test on RXF 393 and with SF-295 was > 100 µM (inactive) throughout. For the same molecule, the GI50 in the test with SK-MEL-28, with SK-MEL-2, in the test with SN12C and in the test with TK-10 was > 100 µM (inactive) throughout.
Take `O=C(O)c1ccccc1C1c2ccccc2Oc2ccccc21`: the GI50 in the test with A549 is 48.6 µM (inactive); in the test with CAKI-1, 34.1 µM (inactive); with HCT-15 it was 36.9 µM; in the test with HOP-62, 41.3 µM (inactive); in the test on HT-29 it was 74.6 µM (inactive); with K562, 75.2 µM (inactive). For the same molecule, the GI50 was > 100 µM (inactive) in the test with M14; 52.4 µM (inactive) in the test with MDA-MB-435; 26.7 µM (inactive) with Malme-3M; 54.6 µM (inactive) in the test with RPMI-8226; 69.5 µM (inactive) in the test with RXF 393; 40.2 µM (inactive) in the test with SF-295. In addition, the GI50 in the test with SK-MEL-28 was > 100 µM (inactive); in the test on SK-MEL-2, 23.4 µM (inactive); with SN12C, 46 µM (inactive); in the test on TK-10, > 100 µM (inactive).
Regarding `Cn1c(-c2cccs2)cc(-c2ccccc2)c1-c1cccs1`, the GI50 in the test with A549 is 12.3 µM (inactive); in the test on CAKI-1, 93.5 µM (inactive); in the test with COLO 205 it was 19.1 µM (inactive); in the test on HCC 2998, > 100 µM (inactive); with HCT-15 it was above 100 µM; in the test on HOP-62 it was 18.2 µM (inactive). Also, the GI50 with HT-29 is 63 µM (inactive); in the test with K562, > 100 µM (inactive); in the test on M14, 56.6 µM (inactive); with MDA-MB-435, > 100 µM (inactive); in the test with RPMI-8226, > 100 µM (inactive); in the test on RXF 393, > 100 µM (inactive). Besides, the GI50 in the test on SF-295 was 17 µM (inactive); in the test with SK-MEL-28, > 100 µM (inactive); in the test on SK-MEL-2, 25.5 µM (inactive); in the test on SN12C it was > 100 µM (inactive); in the test with TK-10, > 100 µM (inactive).
Regarding `O=c1[nH]cnc2c(C3OC(CO)C(O)C3O)c[nH]c12` (configuration not stated), the GI50 with A549, in the test on CAKI-1, in the test with COLO 205, with HCC 2998, in the test on HOP-62 and in the test on HT-29 was > 100 µM (inactive) throughout. Further, the GI50 in the test with K562, in the test on M14, with MDA-MB-435, in the test on Malme-3M, in the test with RPMI-8226 and in the test on RXF 393 was > 100 µM (inactive) in each case. For the same molecule, the GI50 in the test on SF-295, with SK-MEL-28, in the test with SN12C and in the test with TK-10 was > 100 µM (inactive) each time.
Consider `NNc1nnc(-c2nnc(NN)o2)o1`, for which the GI50 in the test on A549 is > 10 µM (inactive); with CAKI-1, > 10 µM (inactive); in the test with COLO 205, > 10 µM (inactive); in the test with HCC 2998, > 10 µM (inactive); in the test with HCT-15 it was above 10 µM; in the test on HOP-62 it was > 10 µM (inactive). Moreover, the GI50 with HT-29, in the test on K562, in the test on M14, in the test with MDA-MB-435, in the test on Malme-3M and in the test with RPMI-8226 was > 10 µM (inactive) each time. Also, the GI50 in the test with RXF 393, in the test with SF-295, with SK-MEL-28, in the test with SN12C and with TK-10 was > 10 µM (inactive) throughout.
